These results are taken from patent US20220110936A1, “PHARMACEUTICAL COMPOSITION FOR TREATMENT OF NEURODEGENERATIVE DISEASES OR DISEASES CAUSED BY ABNORMALITY OF RNA BINDING PROTEIN AND APPLICATIONS THEREOF” (Shanghai Institute of Organic Chemistry, Chinese Academy of …, priority 2019, published 2022).

One series has as its system ALS patients. Conditions: cited from earlier work.
Series [1] concerns stress granules containing hnRNP A1 protein in HeLa cells. In words: Assembly of stress granules containing hnRNP A1 under sodium arsenite (immunofluorescence). Type of series: cell-based, human. Conditions: 20 μM, 3 h pretreatment, 100 μM sodium arsenite 0, 10, 30 min, vs DMSO. The method, then:
HeLa cells were cultivated in Dulbecco's modified Eagle's medium (DMEM) (sigma) containing 10% fetal bovine serum (FBS) (Biowest). Cells were purchased from American Type Culture Collection (ATCC) and grown at 37° C., 5% carbon dioxide. In the present invention, unless otherwise specified, cell were seeded 12-18 hours in advance in 24-well plates (Corning) containing glass slides (Thermo) at a density of 2×10^5/ml experiments if the cells were used for subsequent immunofluorescence assays, cells were seeded 12-18 hours in advance in 12-well or 6-well plates at a density of 5×10^5/ml if the cells were used for subsequent WB detection assays.
Plasmid transfection: The plasmid pCAG-hnRNP A1-Flag constructed in 1.1.1 was transfected with PolyJet™ reagent (SignaGen) (the amount of transfection plasmid is 0.8 μg/ml, and the ratio of transfection reagent to transfection plasmid is 1:2 (mass volume percentage, for example, […])). Cells were seeded 12-18 hours in advance and transfection was started when the confluence of cell reached about 70%. About 6 hours after transfection, culture medium were changed to ensure growth status of cells. After the exogenous protein was expressed for 24-48 h, the next step of the experiment can be carried out. […]

Series [2] concerns stress granules containing TDP-43 protein in HeLa cells. In words: Assembly of stress granules containing TDP-43 under sodium arsenite (immunofluorescence). Type of series: cell-based, human. The note with it: 20 μM, 3 h pretreatment, vs DMSO. The procedure:
Drug treatment: in order to inhibit the level of intracellular PARylation, 20 μM PARP inhibitor Olaparib (Selleck) was added 3 hours before harvesting the plasmid-transfected samples mentioned above, and the control group was treated with an equal volume of DMSO.
In order to induce the production of stress granules, the HeLa cells collected in 1.1.3 were treated with 100 μM sodium arsenite (Sigma) for 0, 10 and 30 minutes, respectively.
Cells harvested after treatment in 1.1.4 above were washed once with PBS, fixed with 4% paraformaldehyde (Sangon Biotech) for 15 min, permeabilized with 0.5% Triton-X100 (Sigma) solution for 10 min, and finally incubated with PBST solution containing 3% goat serum (Sigma) (0.1% Tween 20 (Sigma) in PBS) for 1 h at room temperature and incubated overnight at 4° C. with antibodies (Rabbit anti-TIAR (CST), Mouse anti-Flag (Sigma)). The cells were washed with PBST three times at room temperature and incubated for 1 hour at room temperature. After washing three times with PBST at room temperature, fluorescent secondary antibodies (goat anti-mouse-Alexa Fluor 488 (Thermo), goat anti-rabbit-Alexa Fluor 568 (Thermo)) were added for labeling, and then Vectashield Antifade Mounting Medium with DAPI (Vector Laboratories) was used to seal the slices. The signals were observed and acquired under a 100× oil microscope on a Leica TCS SP8 confocal microscope. […]

The test system of a further series is PARP. In words: Western blot of intracellular PARylation level in HeLa cells. Type of series: cell-based, human. The note with it: 20 μM, 3 h, vs DMSO. (In general: In western blotting, separated proteins are transferred to a membrane and probed.)
Series [3] concerns motor neuron-like NSC-34 cells overexpressing hnRNP A1. In words: Cell viability (CCK-8) of NSC-34 cells overexpressing hnRNP A1. The series is classed as cell-based. The procedure: (§1) 293T cells were cultured in DMEM (sigma) containing 10% FBS (Biowest). NSC-34 cells were cultured with RPMI 1640 medium (Gibco, 11875-093) containing 10% FBS. Cells were grown at 37° C. with 5% carbon dioxide. Cells were both purchased from ATCC.
(§2) Lentiviral packaging plasmids and the corresponding exogenous hnRNP A1 or TDP-43 expression plasmids were transfected simultaneously in 293T cells with PolyJet™ transfection reagent. After 48 hours of transfection, the cell culture was collected by filtration with a 0.45 μm syringe filter (Millipore) and concentrated with Lenti-X™ Concentrator (Clontech), and the concentrated product was used for subsequent infection of NSC-34 cells.
(§3) NSC-34 cells were seeded one day in advance in 96-well plates (Corning) and the corresponding lentivirus was added for transfection. Cell viability was determined 48-72 h after transfection using Cell Counting Kit-8 (CCK-8) (Dojindo) kit. In brief, 10 μL of CCK-8 solution was added to each well. After incubation at 37° C. for 2.5 h, the absorbance light at 450 nm of the solution was detected with a Synergy2 microplate reader (BioTek Instruments) and cell viability values were calculated according to the instructions.
(§4) The siRNA transfection procedure was the same as that in Example 1, and the transfection time was 48-60 h. The corresponding siRNA sequences are as follows.

The subject of series [4] is motor neuron-like NSC-34 cells overexpressing TDP-43. In words: Cell viability (CCK-8) of NSC-34 cells overexpressing TDP-43. Type of series: cell-based. The note with it: 5 μM. The method, then: as §1, §2, §3, §4
The next series has as its target T1, hnRNP A1 (Homo sapiens, UniProt P09651).
T1 construct: host or cells: E. coli BL21 (DE3) pLysS
In words: In vitro liquid-liquid phase separation (LLPS) of hnRNP A1. Conditions: added under critical conditions. The procedure: pET9d-hnRNP A1 (Addgene) was used for hnRNP A1 protein expression in E. coli BL21 (DE3) pLysS (TranGeneBiotech). After 0.4 mM IPTG (SangonBiotech) induction at 25° C. for 15 h, the obtained bacteria were collected by centrifugation, and lysed by lysis buffer (50 mM Tris-HCl at pH 7.5, 2 mM DTT, 1 mM PMSF, 5% glycerin, and 0.1 mg/mL RNase A). Supernatant was collected by centrifugating the lysate at a high speed at 4° C. and then transferred to a 5 ml SP column in an AKTA (GE Healthcare) machine. The protein binded on the column was eluted with a mixture (9:1) of buffer A (50 mM Tris-HCl pH 7.5, 2 mM DTT and 5% glycerin) and buffer B (buffer A with 1 M NaCl). The eluted protein was purified by Superdex 75 16/600 column (GE Healthcare). The purified protein was dissolved in stock buffer (50 mM Tris-HCl pH 7.5, 500 mM NaCl and 2 mM DTT) for subsequent experiments.
The purified hnRNP A1 protein was mixed with a certain concentration of PAR (Trevigen) under a certain salt concentration. The reaction system was 50 mM Tris-HCl, pH 7.5, 10% (w/v) […] (Sigma) and 2 mM DTT. After the mixture was incubated at room temperature for 3 minutes, 5 μl was dropped on a glass slide for observation with an SP8 confocal microscope (Leica).

In the next series the test system is hnRNP A1 and TDP-43. In words: In vitro co-phase separation of hnRNP A1 and TDP-43 fragments. The method, then: TDP-43^1-274: The expression plasmid pET-28a-TDP-43^1-274-6×His was expressed in BL21 E. coli (DE3) (TranGeneBiotech) after induction by 50 uM IPTG (SangonBiotech) at 19° C. for 16 h. The resulting bacteria were collected by centrifugation, and lysed by lysis buffer (50 mM Tris-HCl, 500 mM NaCl, pH 8.0, 10 mM imidazole, 4 mM β-mercaptoethanol, 1 mM PMSF, and 0.1 mg/mL RNase A). Supernatant was collected by centrifugating the lysate at low temperature and then purified and enriched by Ni column (GE Healthcare). The protein enriched by Ni columns was eluted with eluent (50 mM Tris-HCl, 500 mM NaCl, pH 8.0, 250 mM imidazole and 4 mM β-mercaptoethanol), and then purified with Superdex 200 […] column (GE Healthcare). The purified protein was finally dissolved in a storage buffer (50 mM Tris-HCl pH 7.5, 300 mM NaCl and 2 mM DTT) for subsequent experiments.
TDP-43^274-414: This protein was expressed in BL21 E. coli (DE3) (TranGeneBiotech) by adding 50 uM IPTG (SangonBiotech) at 37° C. for inducing the expression of the protein in inclusion bodies. Collected bacteria were lysed with denaturing lysis buffer (50 mM Tris-HCl, pH 8.0 and 6 M guanidine hydrochloride). The lysis product was centrifuged at high speed for 1 h at 4° C. and the supernatant was collected for purification by Ni column. The proteins were eluted with denaturing elution solution (50 mM Tris-HCl at pH 8.0, 6 M guanidine hydrochloride and 50 mM imidazole) and then further purified by HPLC (Agilent) and the resulting product was lyophilized using a freeze-dryer (Thermo Fisher) and then prepared for use.
The purified TDP-43^1-274 and hnRNP A1 proteins (obtained in Example 6) were diluted separately into desalting reaction solution (50 mM Tris-HCl, pH 7.5, 500 mM NaCl and 4 mM Tris(2-Carboxyethyl) Phosphine (TCEP) (Invitrogen)), and DTT was removed using a desalting column (GE Healthcare). After desalting, TDP-43^1-274 and hnRNP A1 proteins were incubated for 2 h at room temperature with 5 times the volume of AlexaFluor-555 C2-malemide (Invitrogen) or AlexaFluor-647 C2-malemide (Invitrogen), respectively. […]

T1 sequence (P09651 1-320 isoform P09651-2): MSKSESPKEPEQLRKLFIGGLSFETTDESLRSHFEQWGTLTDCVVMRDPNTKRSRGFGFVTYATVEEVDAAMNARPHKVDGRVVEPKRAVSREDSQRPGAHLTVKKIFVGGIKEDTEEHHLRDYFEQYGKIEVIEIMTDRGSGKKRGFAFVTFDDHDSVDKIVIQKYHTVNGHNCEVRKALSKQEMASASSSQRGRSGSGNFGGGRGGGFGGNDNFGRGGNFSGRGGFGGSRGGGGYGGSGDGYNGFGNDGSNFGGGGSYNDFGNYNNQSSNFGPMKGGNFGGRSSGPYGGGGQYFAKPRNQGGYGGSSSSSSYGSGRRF
Method for PARP: Drug treatment: in order to inhibit the level of intracellular PARylation, 20 μM PARP inhibitor Olaparib (Selleck) was added 3 hours before harvesting the plasmid-transfected samples mentioned above, and the control group was treated with an equal volume of DMSO. […]
Immunoblotting assay: the above boiled proteins were separated by 10% Bis-Tris SDS-PAGE (Invitrogen), then transferred to 0.22 μm PVDF membrane (Millipore), sealed with 5% skimmed milk powder, and added with corresponding antibodies (anti-pan-ADP-ribose binding reagent (Millipore), mouse anti-Tubulin (MLB), rabbit anti-PRAG (CST), mouse anti-GAPDH (Proteintech)) for immunoblotting assay. Membranes incubated with primary antibodies were then incubated with the corresponding secondary antibodies coupled with HRP (goat anti-mouse (Sigma), goat anti-rabbit (sigma)), and corresponding protein signals were detected in Amersham Imager 600 (GE Healthcare) using ECL luminescent solution (Tanon).

Regarding `CC1=NN(c2ccccc2)C(=O)C1` [Edaravone], in the series with ALS patients (phase III clinical trials), the “physical impairment in ALS patients” value is listed as “alleviate some degree of physical impairment”.
As to `O=C(c1cc(Cc2n[nH]c(=O)c3ccccc23)ccc1F)N1CCN(C(=O)C2CC2)CC1` [Olaparib], in series [1], the “formation of intracellular stress granules and stress granules containing hnRNP A1” value is on record as “delayed”. In series [2], the “formation of intracellular stress granules and stress granules containing TDP-43” value was “delayed”. Further, the “intracellular level of PARylation (WB)” value in the series with PARP is listed as “significantly reduce”. Further, the “hnRNP A1-induced neurocytotoxicity” value in series [3] was “significant inhibitory effect”. The “cytotoxicity induced by overexpression of TDP-43” value in series [4] is listed as “can reduce the cytotoxicity”.
With `Nc1nc2ccc(OC(F)(F)F)cc2s1` [Riluzole], in the series on ALS patients (ALS patients), the “prolongation of the patient's life” value is given as 3-6 months; the side effects entry was “nausea, dizziness and even pneumonia”.
Take heparin: at hnRNP A1, the “LLPS of hnRNP A1” value is on record as “did not promote”.
With poly(ADP-ribose) [PAR], the “co-phase separation of hnRNP A1 and TDP-43 1-274” value in the series on hnRNP A1 and TDP-43 is “can promote”. Further, in the series on hnRNP A1 and TDP-43 (high concentration), the “co-phase separation of hnRNP A1 and TDP-43 274-414” value is “cannot promote”; the “phase separation of hnRNP A1 or TDP-43 1-274 alone” value was “cannot promote”. For the same compound, the “LLPS of hnRNP A1” value at hnRNP A1 is reported as “promoted”.
